The source of these data is ChEMBL document CHEMBL3808336, “Pyrazolylbenzo[d]imidazoles as new potent and selective inhibitors of carbonic anhydrase isoforms hCA IX and XII” (Bioorg Med Chem, 2016).

The target in one test is Carbonic anhydrase 2 (Homo sapiens, UniProt P00918). The test can be described thus: Inhibition of recombinant human carbonic anhydrase 2 preincubated for 15 min to 72 hrs by stopped flow CO2 hydrase assay.
For the next test, the target named is Carbonic anhydrase 9 (Homo sapiens, UniProt Q16790). The test can be described thus: Inhibition of recombinant human carbonic anhydrase 9 preincubated for 15 min to 72 hrs by stopped flow CO2 hydrase assay.
A further test has as its target Carbonic anhydrase 1 (Homo sapiens, UniProt P00915). The test can be described thus: Inhibition of recombinant human carbonic anhydrase 1 preincubated for 15 min to 72 hrs by stopped flow CO2 hydrase assay.

Chain of Carbonic anhydrase 1 (P00915 whole entry): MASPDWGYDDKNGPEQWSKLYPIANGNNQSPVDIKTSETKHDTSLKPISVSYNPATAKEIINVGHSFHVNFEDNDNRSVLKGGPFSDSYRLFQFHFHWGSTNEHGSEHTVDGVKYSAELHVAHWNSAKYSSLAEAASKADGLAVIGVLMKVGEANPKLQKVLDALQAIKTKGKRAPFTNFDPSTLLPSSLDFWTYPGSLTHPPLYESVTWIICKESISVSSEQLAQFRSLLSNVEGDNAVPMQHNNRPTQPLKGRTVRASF

As to `c1ccc(-c2nn(-c3ccccc3)cc2-c2nc3ccccc3[nH]2)cc1`, the values for the inhibition constant (Ki) on Carbonic anhydrase 2, on Carbonic anhydrase 9 and at Carbonic anhydrase 1 were greater than 40 µM, 55.9 nM and greater than 40 µM, respectively.

As for `Fc1ccc(-c2nn(-c3ccccc3)cc2-c2nc3ccccc3[nH]2)cc1`, the inhibitory constant (Ki) on Carbonic anhydrase 2 and on Carbonic anhydrase 1 was greater than 40 µM in each case.

With `Clc1ccc(-c2nn(-c3ccccc3)cc2-c2nc3ccccc3[nH]2)cc1`, the figures for the Ki on Carbonic anhydrase 2, at Carbonic anhydrase 9 and at Carbonic anhydrase 1 were greater than 40 µM, 7.5 nM and greater than 40 µM, respectively.

For the compound `COc1ccc(-c2nn(-c3ccccc3)cc2-c2nc3ccccc3[nH]2)cc1`, the inhibition constant (Ki) was greater than 40 µM on Carbonic anhydrase 2, 48.7 nM on Carbonic anhydrase 9 and greater than 40 µM on Carbonic anhydrase 1.

Take `NS(=O)(=O)c1ccc(-n2cc(-c3nc4ccccc4[nH]3)c(-c3ccc(Cl)cc3)n2)cc1`: on Carbonic anhydrase 9, the inhibition constant (Ki) amounted to 70.2 nM.

Regarding `NS(=O)(=O)c1ccc(-n2cc(-c3nc4ccccc4[nH]3)c(-c3ccc(F)cc3)n2)cc1`, on Carbonic anhydrase 9, the inhibition constant (Ki) is 74.7 nM.

`NS(=O)(=O)c1ccc(-n2cc(-c3nc4ccccc4[nH]3)c(-c3ccccc3)n2)cc1`: the Ki at Carbonic anhydrase 9 came out at 24.9 nM.

For the compound `NS(=O)(=O)c1ccc(-n2cc(-c3nc4ccccc4[nH]3)c(-c3ccc(Br)cc3)n2)cc1`, the Ki on Carbonic anhydrase 9 is 641 nM.

Take `Cc1ccc(-c2nn(-c3ccccc3)cc2-c2nc3ccccc3[nH]2)cc1`: the inhibition constant (Ki) at Carbonic anhydrase 2 is greater than 40 µM; at Carbonic anhydrase 9, 23.3 nM; at Carbonic anhydrase 1, greater than 40 µM.

Turning to `Brc1ccc(-c2nn(-c3ccccc3)cc2-c2nc3ccccc3[nH]2)cc1`, the results for the inhibition constant Ki on Carbonic anhydrase 2 and at Carbonic anhydrase 9 were greater than 40 µM and 55.1 nM, respectively.

In the case of `COc1ccc(-c2nn(-c3ccc(S(N)(=O)=O)cc3)cc2-c2nc3ccccc3[nH]2)cc1`, the Ki on Carbonic anhydrase 9 was determined as 554 nM.
